Assay results published in patent publication US20240166630A1, “INDOLE DERIVATIVES AS SEROTONERGIC AGENTS USEFUL FOR THE TREATMENT OF DISORDERS RELATED THERETO” (Mindset Pharma Inc., priority 2021, published 2024).

Key:
[1] = biological target: T1, human 5-HT2A (h5-HT2A) receptor (Homo sapiens, UniProt P28223); assay: FLIPR assay, human 5-HT2A receptor under agonist mode; type: cell-based
T1 construct: expressed in transfected cells; kept under G418 and hygromycin B selection
Method: I. Assessment of the Activated Effect of Compounds of Formula I-B Targeting on Human 5-HT2A (h5-HT2A) Receptor Under Agonist Mode:
1. The cells were cultured in cell culture medium (DMEM containing 10% FBS, 1× penicillin-streptomycin 300 μg/ml G418 and 100 μg/ml hygromycin B) at 37° C., 5% (v/v) CO2.
2. One day before the assays, the cells were detached using TrypLE™ Express and count cells using cell counter.
3. 20000 cells/well were seeded in 30 μl/well culture medium to a 384-well cell plate and incubated the cells overnight at 37° C., 5% (v/v) CO2.
4. On the assay day, 2×dye solution was prepared following the manual of the FLIPR® Calcium 6 Assay Kit: i. The dye was diluted with assay buffer (20 mM HEPES in 1×HBSS, PH7.4); ii. probenecid was added to the final concentration of 5 mM; iii. Vortexed vigorously for 1-2 minutes.
5. Medium was removed from cell plate by flicking the cell plate on towel papers.
7. The cell plate was placed on plate shaker, the plate agitated at 600 rpm for 2 minutes. The plate was incubated at 37° C. for 2 hours followed by additional 15-minute incubation at 25° C.
8. 3×compound was prepared in assay buffer: a. Reference compounds were diluted to required concentration with DMSO. The compounds were added to a 384-well compound plate; b. Serial dilutions were performed; c. 10 mM test compounds were added to the compound plate, 3-fold serial dilutions were performed. […] 20 μl/well assay buffer was added to the compound plate; f.
9. The cell plate, compound plate and tips were placed into FLIPR, 10 μl of 3× compound was transferred to the cell plate per well with FLIPR.
i. The normalized fluorescence reading (RFU) was calculated as shown follow, while Fmax and Fmin stand for maximum and minimum of calcium signal during defined time window: RFU=Fmax−Fmin
ii. The percentage activation was calculated by using following equation: […]
iii. EC50 was calculated by fitting % activation against log of compound concentrations with Hill equation using Xlfit.

[2] = biological target: T2, human 5-HT2A (Homo sapiens, UniProt P28223); assay: Radioligand binding assay on human 5-HT2A receptor ([3H]-ketanserin)
T2 sequence (P28223 whole entry): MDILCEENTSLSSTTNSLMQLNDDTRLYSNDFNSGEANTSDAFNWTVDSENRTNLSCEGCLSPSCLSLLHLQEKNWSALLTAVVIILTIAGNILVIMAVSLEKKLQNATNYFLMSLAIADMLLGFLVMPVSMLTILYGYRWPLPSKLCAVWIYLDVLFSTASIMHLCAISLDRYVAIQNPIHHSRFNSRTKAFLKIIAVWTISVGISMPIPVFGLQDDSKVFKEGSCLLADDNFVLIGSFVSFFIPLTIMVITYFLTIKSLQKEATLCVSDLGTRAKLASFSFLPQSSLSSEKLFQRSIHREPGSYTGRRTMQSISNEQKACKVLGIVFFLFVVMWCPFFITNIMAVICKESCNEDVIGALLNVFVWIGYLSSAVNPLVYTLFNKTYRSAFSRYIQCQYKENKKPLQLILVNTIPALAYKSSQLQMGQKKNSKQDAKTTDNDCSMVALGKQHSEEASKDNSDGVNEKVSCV
Method: i. The assay buffer was prepared following the table below;
iii. Prepared (v/v) DMSO as follows: a. […] The plates were sealed and incubated at 4° C. for 3 hrs;
iv. Preparation of assay plates: a.
vi. The plates were sealed and incubated at 27° C. for 90 min.

[3] = Liver microsomes stability with NADPH, human; conditions: for Remaining Percentage (%) after 60 min Human: 2 μM; for half-life at 2 μM / microsomal CLint at 2 μM: human, microsomes
Method: (§1) The objective of this study was to estimate in vitro metabolic stability of representative compounds of the application in pooled human and male mouse liver microsomes. The concentrations of parent compounds in reaction systems were evaluated by LC-MS/MS for estimating the stability in pooled human and male mouse liver microsomes. The in vitro intrinsic clearances of test compounds were determined as well.
(§2) A master solution in the “Incubation Plate” containing phosphate buffer, ultra-pure H2O, MgCl2 solution and liver microsomes was made according to Table 3. The mixture was pre-warmed at 37° C. water bath for 5 minutes.
(§3) 40 μL of 10 mM NADPH solution was added to each well. The final concentration of NADPH was 1 mM. The negative control samples were prepared by replacing NADPH with 40 μL of ultra-pure H2O. Samples were prepared in duplicate. Negative controls were prepared in singlet.
(§4) The reaction was started with the addition of 4 μL of 200 μM test compounds or control compounds to each master solution to get the final concentration of 2 μM. This study was performed in duplicate.
(§5) Aliquots of 50 μL were taken from the reaction solution at 0, 15, 30, 45 and 60 minutes. The reaction solutions were stopped by the addition of 4 volumes of cold methanol with IS (100 nM alprazolam, 200 nM imipramine, 200 nM labetalol and 2 μM ketoprofen). Samples were centrifuged at 3,220 g for 40 minutes. Aliquot of 90 μL of the supernatant was mixed with 90 μL of ultra-pure H2O and then was used for LC-MS/MS analysis.
(§6) LC/MS analysis was performed for all samples from this study using a Shimadzu liquid chromatograph separation system equipped with degasser DGU-20A5R; solvent delivery unit LC-30AD; system controller SIL-30AC; column oven CTO-30A; CTC Analytics HTC PAL System; Mass spectrometric analysis was performed using an Triple Quad™ 5500 instrument.
(§7) All calculations were carried out using Microsoft Excel. Peak area ratios of test compound to internal standard (listed in the below table) were determined from extracted ion chromatograms.
(§8) All calculations were carried out using Microsoft Excel. Peak areas were determined from extracted ion chromatograms. The slope value, k, was determined by linear regression of the natural logarithm of the remaining percentage of the parent drug vs. incubation time curve.
(§9) The in vitro half-life (in vitro t1/2) was determined from the slope value:
(§10) Conversion of the in vitro t1/2 (min) into the in vitro intrinsic clearance (in vitro CLint, in μL/min/mg proteins) was done using the following equation (mean of duplicate determinations): […]

[4] = Liver microsomes stability with NADPH, mouse; conditions: for half-life at 2 μM / microsomal CLint at 2 μM: male, mouse, microsomes; for Remaining Percentage (%) after 60 min Mouse: mouse liver microsomes, with NADPH, 2 μM
Method: as §1, §2, §3, §4, §5, §6, §7, §8, §9, §10

[5] = Liver microsomes stability with NADPH, rat; conditions: for Remaining Percentage (%) after 60 min Rat: rat liver microsomes, with NADPH, 2 μM; for half-life at 2 μM / microsomal CLint at 2 μM: rat, microsomes
[6] = rapid first-pass metabolism by monoamine oxidase; cited from earlier work
[7] = biological target: T2, human 5-HT2A; conditions: read-out: binding affinity 5-HT2A; literature value; cited from earlier work
[8] = human liver microsomes, with NADPH

T1 sequence (P28223 whole entry): as above

[2H]C([2H])([2H])N1CCC[C@@H]1Cc1c[nH]c2ccc(OC)cc12 [I-B-9, (R)-5-methoxy-3-((1-(methyl-d3)pyrrolidin-2-yl)methyl)-1H-indole]
EC50 [1]: < 100 nM | IC50 [2]: < 500 nM

[2H]C([2H])([2H])Oc1ccc2[nH]cc(C([2H])([2H])[C@H]3CCCN3C([2H])([2H])[2H])c2c1 [I-B-12, (R)-5-(methoxy-d3)-3-((1-(methyl-d3)pyrrolidin-2-yl)methyl-d2)-1H-indole]
EC50 [1]: < 100 nM | IC50 [2]: < 500 nM | Remaining Percentage (%) after 60 min Human [3, 8]: 78.24% | half-life at 2 μM [3]: 2.82 h | microsomal CLint at 2 μM [3]: 6.86 µL/min/mg | half-life at 2 μM [4]: 1.51 h | microsomal CLint at 2 μM [4]: 38.4 µL/min/mg | Remaining Percentage (%) after 60 min Mouse [4]: 63.17% | Remaining Percentage (%) after 60 min Rat [5]: 35.87% | half-life at 2 μM [5]: 0.676 h | microsomal CLint at 2 μM [5]: 29 µL/min/mg

[2H]C([2H])([2H])Oc1ccc2[nH]cc(C[C@H]3CCCN3C([2H])([2H])[2H])c2c1 [I-B-11, (R)-5-(methoxy-d3)-3-((1-(methyl-d3)pyrrolidin-2-yl)methyl)-1H-indole]
EC50 [1]: < 100 nM | IC50 [2]: < 500 nM | Remaining Percentage (%) after 60 min Human [3, 8]: 85.35% | half-life at 2 μM [3]: 4.38 h | microsomal CLint at 2 μM [3]: 5.01 µL/min/mg | half-life at 2 μM [4]: 1.36 h | microsomal CLint at 2 μM [4]: 40.6 µL/min/mg | Remaining Percentage (%) after 60 min Mouse [4]: 60.16% | Remaining Percentage (%) after 60 min Rat [5]: 34.51% | half-life at 2 μM [5]: 0.651 h | microsomal CLint at 2 μM [5]: 29.5 µL/min/mg

[2H]C([2H])([2H])Oc1ccc2[nH]cc(C([2H])([2H])[C@H]3CCCN3)c2c1 [I-B-15, (R)-5-(methoxy-d3)-3-(pyrrolidin-2-ylmethyl-d2)-1H-indole]
EC50 [1]: < 100 nM | IC50 [2]: < 500 nM

[2H]C([2H])(c1c[nH]c2ccccc12)[C@H]1CCCN1 [I-B-8, (R)-3-(pyrrolidin-2-ylmethyl-d2)-1H-indole]
EC50 [1]: 100 to 1000 nM | IC50 [2]: 500 to 5000 nM | Remaining Percentage (%) after 60 min Human [3, 8]: 91.11% | half-life at 2 μM [3]: 7.44 h | microsomal CLint at 2 μM [3]: 3.1 µL/min/mg | half-life at 2 μM [4]: 1.22 h | microsomal CLint at 2 μM [4]: 18.9 µL/min/mg | Remaining Percentage (%) after 60 min Mouse [4]: 56.72% | Remaining Percentage (%) after 60 min Rat [5]: 38.89% | half-life at 2 μM [5]: 0.734 h | microsomal CLint at 2 μM [5]: 31.5 µL/min/mg

[2H]C([2H])(c1c[nH]c2ccccc12)[C@H]1CCCN1C [I-B-2, (R)-3-((1-methylpyrrolidin-2-yl)methyl-d2)-1H-indole]
EC50 [1]: < 100 nM | IC50 [2]: < 500 nM | Remaining Percentage (%) after 60 min Human [3, 8]: 64.96% | half-life at 2 μM [3]: 1.61 h | microsomal CLint at 2 μM [3]: 9.64 µL/min/mg | half-life at 2 μM [4]: 1.02 h | microsomal CLint at 2 μM [4]: 47.1 µL/min/mg | Remaining Percentage (%) after 60 min Mouse [4]: 50.81% | Remaining Percentage (%) after 60 min Rat [5]: 0.81% | half-life at 2 μM [5]: 0.144 h | microsomal CLint at 2 μM [5]: 46.3 µL/min/mg

COc1ccc2[nH]cc(CCN(C)C)c2c1 [Compound 5-MeO-DMT, 5-methoxy-N,N-dimethyltryptamine, reference compound]
CLint (μL/min/mg protein) Human [3, 8]: 101.08 μL/min/mg protein | Half-Life t1/2 (min) Human [3, 8]: 13.75 min | Remaining Percentage (%) after 60 min Human [3, 8]: 4.82% | half-life at 2 μM [4]: 0.842 h | microsomal CLint at 2 μM [4]: 27.4 µL/min/mg | Remaining Percentage (%) after 60 min Mouse [4]: 89.36% | oral activity [6]: not orally active | Remaining Percentage (%) after 60 min Rat [5]: 16.02% | half-life at 2 μM [5]: 0.378 h | microsomal CLint at 2 μM [5]: 61 µL/min/mg

[2H]C([2H])(c1c[nH]c2ccc(OC)cc12)[C@H]1CCCN1 [I-B-16, (R)-5-methoxy-3-(pyrrolidin-2-ylmethyl-d2)-1H-indole]
EC50 [1]: < 100 nM | IC50 [2]: < 500 nM | Remaining Percentage (%) after 60 min Human [3, 8]: 85.35% | half-life at 2 μM [3]: 4.38 h | microsomal CLint at 2 μM [3]: 5.01 µL/min/mg | half-life at 2 μM [4]: 1.36 h | microsomal CLint at 2 μM [4]: 40.6 µL/min/mg | Remaining Percentage (%) after 60 min Mouse [4]: 60.16% | Remaining Percentage (%) after 60 min Rat [5]: 34.51% | half-life at 2 μM [5]: 0.651 h | microsomal CLint at 2 μM [5]: 29.5 µL/min/mg

CN(C)CCc1c[nH]c2ccccc12 [DMT, N,N-dimethyltryptamine, reference compound]
EC50 [1]: 100 to 1000 nM | IC50 [2]: 500 to 5000 nM | Remaining Percentage (%) after 60 min Human [3, 8]: 0.72% | half-life at 2 μM [4]: 0.842 h | microsomal CLint at 2 μM [4]: 27.4 µL/min/mg | Remaining Percentage (%) after 60 min Mouse [4]: 65.90% | Ki [7]: 0.237 nM | oral activity [6]: not orally active | Remaining Percentage (%) after 60 min Rat [5]: 17.29% | half-life at 2 μM [5]: 0.378 h | microsomal CLint at 2 μM [5]: 61 µL/min/mg

[2H]C([2H])(c1c[nH]c2ccc(OC)cc12)[C@H]1CCCN1C [I-B-10, (R)-5-methoxy-3-((1-methylpyrrolidin-2-yl)methyl-d2)-1H-indole]
EC50 [1]: < 100 nM | IC50 [2]: < 500 nM | Remaining Percentage (%) after 60 min Human [3, 8]: 78.24% | half-life at 2 μM [3]: 2.82 h | microsomal CLint at 2 μM [3]: 6.86 µL/min/mg | half-life at 2 μM [4]: 1.51 h | microsomal CLint at 2 μM [4]: 38.4 µL/min/mg | Remaining Percentage (%) after 60 min Mouse [4]: 63.17% | Remaining Percentage (%) after 60 min Rat [5]: 35.87% | half-life at 2 μM [5]: 0.676 h | microsomal CLint at 2 μM [5]: 29 µL/min/mg

[2H]C([2H])(c1c[nH]c2ccc(OC)cc12)[C@H]1CCCN1C([2H])([2H])[2H] [I-B-13, (R)-5-methoxy-3-((1-(methyl-d3)pyrrolidin-2-yl)methyl-d2)-1H-indole]
EC50 [1]: < 100 nM | IC50 [2]: < 500 nM

[2H]C([2H])([2H])Oc1ccc2[nH]cc(C[C@H]3CCCN3)c2c1 [I-B-14, (R)-5-(methoxy-d3)-3-(pyrrolidin-2-ylmethyl)-1H-indole]
EC50 [1]: < 100 nM | IC50 [2]: < 500 nM | Half-Life t1/2 (min) Human [3, 8]: ∞ | Remaining Percentage (%) after 60 min Human [3, 8]: 110.97% | half-life at 2 μM [4]: 8.15 h | microsomal CLint at 2 μM [4]: 10.9 µL/min/mg | Remaining Percentage (%) after 60 min Mouse [4]: 91.85% | Remaining Percentage (%) after 60 min Rat [5]: 92.44% | half-life at 2 μM [5]: 8.82 h | microsomal CLint at 2 μM [5]: 4.33 µL/min/mg
